Laboratory results taken from paper PMC10824102, “Identification of small molecule inhibitors of G3BP-driven stress granule formation” (The Journal of Cell Biology, 2024).

Assays:
Type in all cases: cell-based
[1] = test system: G3BP1- and FUS R495X-positive puncta in U2OS cells with tdTomato-tagged endogenous G3BP1; experiment: Dissolution of puncta induced by FUS R495X expression; conditions: for G3BP1 puncta eliminated / reduction in number of puncta positive for FUS R495X: FUS R495X-transfected cells, 50 μM for 30 min; for extraction of FUS R495X from granules: result in words
Description: U2OS cells with knock-in of G3BP1-tdTomato ([Yang et al., 2020]) were seeded into 96-well plates (3904; Corning). Either GFP-VCP-A232E or GFP-FUS-R495X were transfected into cells using ViaFect transfection reagent (Promega) 24 h prior to the start of the experiment. For samples to be treated with compounds G3Ia or G3Ia′, Hoechst (1:5,000; Biotium) was added and incubated for 30 min prior to the start of the experiment, washed once with PBS, and the media was changed to 100 μl FluoroBrite DMEM media (Gibco) upon starting the experiment. Imaging of plates was performed on a Cytation C10 spinning disk confocal (BioTek) with a Hamamatsu Orca-Flash 4.0 camera using Gen5 software (version 3.11). Imaging was performed through an Olympus Plan Apo 40× 0.6 NA dry objective with an adjustable collar set to 0.5 μm thickness. Laser autofocus prior to imaging the tdTomato channel was utilized for each image. The temperature was maintained at 37°C on the instrument and the cells were supplied with 5% CO2. A 7 × 7 tilescan was taken at the center of each well, capturing the tdTomato and GFP channels (and Hoechst when present). After completing the tilescan, 100 μl FluoroBrite with 100 μM (2×) G3I compound (vortexed for 5 s) was added to each well and incubated for 20 min before starting another round of imaging in the same locations as the first round. Samples treated with G3Ib or G3Ib′ were analyzed manually, scoring each cell with spontaneous granules for the presence or absence of granules following treatment with the compound. For experiments in which G3I compounds were pretreated prior to transfection, 50 μM of indicated compound or vehicle control were added to U2OS cells 20 min prior to the addition of the transfection reagent. After 24 h of transfection, the cells were washed with PBS, fixed in 4% formaldehyde, and incubated with Hoechst (1:5,000; Biotium) in PBS for 30 min prior to the start of the experiment, washed once with PBS, and at room temperature imaging on the Cytation C10 spinning disk confocal was performed as described above.
Samples treated with G3Ia or G3Ia′ were analyzed using an automated pipeline. Segmentation was performed in both ilastik and Cellpose 2.0. Nuclear segmentation using the Hoechst channel and granule segmentation in both GFP and tdTomato channels was performed via pixel classification in ilastik using small cropped portions of the tilescan as the training dataset for each. Individual cell segmentation was performed in Cellpose 2.0 by inputting a merged RGB of the Hoechst and G3BP1-tdTomato channels. The Cellpose output was then eroded by one pixel and set as a binary mask in Fiji. The original three raw channels, three output masks from ilastik, and the one mask generated from Cellpose were all inputted into CellProfiler to generate per-cell measurements for granules as defined by GFP or tdTomato.

[2] = test system: stress granule formation in U2OS cells; experiment: 24 h pretreatment followed by arsenite, immunofluorescence; conditions: then 500 μM NaAsO2 for 30 min
[3] = test system: stress granule formation in WT cell line with endogenous G3BP1; experiment: Stress granule formation in WT cell line with endogenous G3BP1 (immunofluorescence); conditions: Figure S2H: 50 μM, 250 μM NaAsO2 for 30 min
Description: U2OS cells or U2OS cells stably expressing G3BP1-GFP were seeded in four-well Lab-Tek II Chambered Coverglass (1055360; Thermo Fisher Scientific). For preincubation experiments, cells were treated with 50 μM G3I compound for 20 min or 24 h, followed by 250 μM NaAsO2 and 50 μM G3I compound for 30 min. For posttreatment, cells were treated with 250 μM NaAsO2 for 30 min, followed by treatment with 250 μM NaAsO2 and 50 μM G3I compound for 5 min. Cells were then washed twice with PBS and fixed with 4% PFA in PBS for 10 min. Cells were then washed three times with PBS (5 min between each wash), permeabilized with 0.5% Triton X-100 in PBS for 10 min, and washed twice with PBS. Next, cells were blocked for 1 h with 3% BSA in PBS at room temperature, followed by incubation with primary antibodies diluted in 3% BSA overnight at 4°C. Cells were then washed three times with PBS (5 min between each wash) and incubated with secondary antibodies and Hoechst diluted in 3% BSA at room temperature for 1 h. Cells were then washed three times with PBS (5 min between each wash) and imaged. Primary antibodies were as follows: G3BP1 (Cat# 611127, RRID:AB_398438; BD Biosciences) at 1:200; TDP-43 (Cat# 12892-1-AP, RRID:AB_2200505; Proteintech) at 1:50; eIF3η (Cat# sc-137214, RRID:AB_2277705; Santa Cruz Biotechnology) at 1:100 dilution; PABP (Cat# ab21060, RRID:AB_777008; Abcam) at 1:1,000 dilution; and FXR1 (Cat# ab51970, RRID:AB_880113; Abcam) at 1:100 dilution. Secondary antibodies were as follows: donkey anti-mouse Alexa Fluor 647 (Cat# A-31571, RRID:AB_162542; Thermo Fisher Scientific), donkey anti-rabbit Alexa Fluor 555 (Cat# A-31572 [also A31572], RRID:AB_162543; Thermo Fisher Scientific), and donkey anti-goat Alexa Fluor 555 (Cat# A-21432 [also A21432], RRID:AB_2535853; Thermo Fisher Scientific). Nuclei were stained with Hoechst 33342 (40046; Biotium) at 1:10,000 dilution. All imaging was acquired on a Yokogawa CSU W1 spinning disk attached to a Nikon Ti2 eclipse with a Photometrics Prime 95B camera using Nikon Elements software (versions 5.20.00 to 5.21.02). Imaging was performed through a Nikon Plan Apo 60× 1.40 NA oil objective with Immersol 518 F (refractive index 1.518; Zeiss), and Perfect Focus 2.0 (Nikon) was engaged for all captures.

Question: For `COCCC(NC(=O)C(C)NC(=O)C(NC(=O)C(NC(=O)C(F)CC(C)(C)C)C(C)(C)O)C(C)c1ccccc1)C(=O)N(C)Cc1ccccc1` (centres unmarked) [G3Ia], which G3BP1 puncta eliminated [1] is on record?
Answer: 92%

Question: What about the “reduction in number of puncta positive for FUS R495X” value [1] of the same compound?
Answer: 3%

Question: And the “extraction of FUS R495X from granules” value [1]?
Answer: unable to extract FUS R495X from granules

Question: What about the “stress granule formation after 24 h pretreatment” value ([2]; 5 μM) of the same compound?
Answer: no substantial impairment

Question: What about the “stress granule formation after 24 h pretreatment” value ([2]; 20 μM) of the same compound?
Answer: no substantial impairment

Question: And the “stress granule formation after 24 h pretreatment” value ([2]; 50 μM)?
Answer: inhibited stress granule formation

Question: What about the “stress granule formation by endogenous G3BP signal” value [3] of the same compound?
Answer: effectively blocked stress granule formation

Question: `COCCC(NC(=O)C(C)NC(=O)C(NC(=O)C(NC(=O)C(F)CC(C)(C)C)C(C)(C)O)C(C)c1ccccc1)C(=O)N(C)Cc1ccccc1` (centres unmarked) [G3Ia′] was tested. Which G3BP1 puncta eliminated [1] did it give?
Answer: 6%

Question: What about the “reduction in number of puncta positive for FUS R495X” value [1] of the same compound?
Answer: 4%

Question: And the “stress granule formation after 24 h pretreatment” value ([2]; indicated doses)?
Answer: no discernable effects

Question: And the “stress granule formation by endogenous G3BP signal” value [3]?
Answer: not

Question: With `CC(NC(=O)C(NC(=O)C(NC(=O)CCC(C)(C)C)C(C)(C)O)C(C)c1ccccc1)C(=O)N1CCCC1c1ccccc1` (centres unmarked) [G3Ib] as the compound, how does the “extraction of FUS R495X from granules” value [1] read?
Answer: unable to extract FUS R495X from granules

Question: What about the “stress granule formation after 24 h pretreatment” value ([2]; 20 μM) of the same compound?
Answer: nearly completely inhibited

Question: What about the “stress granule formation after 24 h pretreatment” value ([2]; 50 μM) of the same compound?
Answer: nearly completely inhibited

Question: And the “stress granule formation by endogenous G3BP signal” value [3]?
Answer: effectively blocked stress granule formation

Question: How did the “stress granule formation after 24 h pretreatment” value ([2]; indicated doses) turn out when `CC(NC(=O)C(NC(=O)C(NC(=O)CCC(C)(C)C)C(C)(C)O)C(C)c1ccccc1)C(=O)N1CCCC1c1ccccc1` (centres unmarked) [G3Ib′] was run?
Answer: no discernable effects

Question: What about the “stress granule formation by endogenous G3BP signal” value [3] of the same compound?
Answer: not
